Source: patent US8329913B2, “Carbazole derivative, solvate thereof, or pharmaceutically acceptable salt thereof” (Zeria Pharmaceutical Co., Ltd., priority 2004, dated 2012)

Target: T1, human PPARγ (Homo sapiens, UniProt P37231)
T1 construct: 1.6 kb of fragment of the prepared plasmid pGEMT-hPPARg2 including human PPARγ gene; expressed in transfected cells; host or cells: CV-1 cells, transient transfection with pCI-hPPARg2, pCI-hRXRa and the reporter pGL3-PPRE3-TK
T1 sequence (P37231 1-505): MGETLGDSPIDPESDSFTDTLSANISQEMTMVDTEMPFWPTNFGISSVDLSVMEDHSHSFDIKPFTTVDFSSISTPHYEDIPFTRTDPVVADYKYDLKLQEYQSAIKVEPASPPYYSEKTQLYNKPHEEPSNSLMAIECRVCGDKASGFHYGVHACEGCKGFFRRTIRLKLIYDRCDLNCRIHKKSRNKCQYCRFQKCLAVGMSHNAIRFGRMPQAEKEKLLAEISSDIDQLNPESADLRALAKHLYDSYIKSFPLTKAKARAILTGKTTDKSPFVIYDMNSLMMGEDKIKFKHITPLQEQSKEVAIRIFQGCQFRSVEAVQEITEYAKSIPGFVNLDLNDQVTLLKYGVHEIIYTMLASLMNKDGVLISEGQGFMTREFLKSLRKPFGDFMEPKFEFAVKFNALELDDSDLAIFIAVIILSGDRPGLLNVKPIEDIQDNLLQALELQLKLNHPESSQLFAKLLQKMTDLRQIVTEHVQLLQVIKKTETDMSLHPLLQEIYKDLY
T1 sequence (P19793 1-462 partner): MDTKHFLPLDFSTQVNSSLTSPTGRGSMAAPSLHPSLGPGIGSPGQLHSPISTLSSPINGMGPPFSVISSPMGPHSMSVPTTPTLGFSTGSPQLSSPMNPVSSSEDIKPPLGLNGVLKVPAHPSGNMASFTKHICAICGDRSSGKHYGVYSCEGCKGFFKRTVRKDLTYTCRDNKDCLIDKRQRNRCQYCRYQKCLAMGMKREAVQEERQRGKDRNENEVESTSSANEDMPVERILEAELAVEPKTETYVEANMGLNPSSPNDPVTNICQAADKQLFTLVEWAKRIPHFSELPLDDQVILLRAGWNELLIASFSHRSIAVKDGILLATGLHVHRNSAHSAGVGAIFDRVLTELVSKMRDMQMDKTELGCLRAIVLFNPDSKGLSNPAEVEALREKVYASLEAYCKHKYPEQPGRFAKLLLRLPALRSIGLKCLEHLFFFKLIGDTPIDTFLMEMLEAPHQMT
Experiment: Human PPARγ antagonist assay (luciferase reporter in transfected CV-1 cells)
Type: cell-based
Details: CV-1 cells expressing human PPARγ and RXRα with reporter plasmid; pioglitazone 1 μM as stimulant; 24 hours; read-out: Human PPARγ antagonist activities, Inhibition IC50
Method: CV-1 cells (96 well plate), where human PPARγ and RXRα has expressed in the transient transfection of reporter plasmid (see reference 5a) were washed once with PBS (100 μL/well), and then supplemented with 100 μL/well […], as well as pioglitazone (not limited to pioglitazone shown as an example, but may be any PPARγ agonist) at a final concentration of 1 μM as a stimulant were added, and incubated in a 5% CO2 incubator at 37° C. for 24 hours. After removing the medium, the CV-1 cells were washed once with PBS (100 μL/well), and supplemented with 60 μL/well of 1× Passive Lysis Buffer (manufactured by Promega Corporation). The CV-1 cells were incubated at room temperature for 30 minutes, stirred, and then by using Dual-Luciferase Reporter Assay System (manufactured by Promega Corporation), luciferase activities of firefly and renilla were measured using 1420 ARVO Multilabel Counter (manufactured by Wallac Oy). Also, the same experiments as that described above were respectively carried out for the cases where only the above-mentioned stimulants (100 nM, 1 μM, 10 μM) were used, where only the above-mentioned test compounds were used, or where neither was used (nonsupplemented), and luciferase activities of firefly and renilla were measured. Values corrected by dividing the firefly luciferase activities by the renilla luciferase activities were calculated as specific activities and used for evaluations.
Human PPARγ2 antagonist activities of the test compounds were evaluated by using a percentage (inhibition) where the specific activity in case only […] was added is regarded as 0% and the specific activity in case the test compound and the stimulant were not added is regarded as 100%. Moreover, the concentration of the test compound indicating the inhibition rate of 50% was calculated as the IC50 value. Also, human PPARγ2 agonist activities of the test compounds were evaluated by using a percentage (activity) where the specific activity when nonsupplemented is regarded as 0% and the specific activity in case only 10 μM stimulant was added is regarded as 100%, from the specific activity in case only the test compound is used.
CV-1 cells were cultured in DMEM medium (manufactured by Invitrogen Corporation) including 10% fetal bovine serum (manufactured by Dainippon Pharmaceutical Co., Ltd.) in 225T-Flask (manufactured by Corning Costar). The cells were detached by 0.5 g/L trypsin-0.2 g/L EDTA (ethylene diamine tetra-acetic acid) (manufactured by Invitrogen Corporation), and then suspended in the DMEM medium including 10% fetal bovine serum to a cell concentration of 2×10^5 cells/mL. Thereafter, the cells were seeded into 96 well plate at 2×10^4 cells/0.1 mL/well, incubated in the 5% CO2 incubator at 37° C. overnight, and then the plasmids prepared by the above-mentioned reference 1a, reference 3a, and reference 4a were transfected into cells by using a lipofectamine reagent (manufactured by Invitrogen Corporation) according to the attached manual.
Namely, after CV-1 cells were cultured overnight, the cells were washed with PBS (100 μL/well). Thereafter the cells were incubated for 5 hours at 37° C./5% CO2 in the MEM medium (manufactured by Invitrogen Corporation) including 430 ng/mL of human PPARγ expression plasmid (pCI-hPPARg2) prepared by the reference 1a, 430 ng/mL of human RXRα expression plasmid (pCI-hRXRa) prepared by the reference 3a, and 140 ng/mL of the reporter plasmid (pGL3-PPRE3-TK) prepared by the reference 4a, 10 ng/mL of phRL-TK vector (manufactured by Promega Corporation) and 2 μL/mL of lipofectamine.

Row | Structure (SMILES) | IC50 [nM]
1 | CCCC(Oc1cccc2c1c1ccccc1n2Cc1ccc(OCc2nc(-c3ccccc3)oc2C)c(OC)c1)C(=O)O (racemic) [Example 11, (±)-2-{9-[3-methoxy-4-((5-methyl-2-phenyl-oxazole-4-yl)methoxy)-benzyl]-9H-carbazole-4-yloxy}valeric acid] | 281
2 | COc1cc(Cn2c3ccccc3c3c(OCCCCC(=O)O)cccc32)ccc1OCc1nc(-c2ccccc2)oc1C [Example 20, 5-{9-[3-methoxy-4-((5-methyl-2-phenyl-oxazole-4-yl)methoxy)-benzyl]-9H-carbazole-4-yloxy}valeric acid] | 1600
3 | COc1cc(Cn2c3ccccc3c3c(OCCC(C)C(=O)O)cccc32)ccc1OCc1nc(-c2ccccc2)oc1C (single isomer, unassigned) [Example 53, sodium (+)-4-{9-[3-methoxy-4-((5-methyl-2-phenyl-oxazole-4-yl)methoxy)-benzyl]-9H-carbazole-4-yloxy}-2-methyl-butyrate] | 382
4 | COc1cc(Cn2c3ccccc3c3c(OCCC(C)C(=O)O)cccc32)ccc1OCc1nc(-c2ccccc2)oc1C (single isomer, unassigned) [Example 52, sodium (−)-4-{9-[3-methoxy-4-((5-methyl-2-phenyl-oxazole-4-yl)methoxy)-benzyl]-9H-carbazole-4-yloxy}-2-methyl-butyrate] | 173
5 | CCCCCCC(Oc1cccc2c1c1ccccc1n2Cc1ccc(OCc2nc(-c3ccccc3)oc2C)c(OC)c1)C(=O)O (racemic) [Example 19, (±)-2-{9-[3-methoxy-4-((5-methyl-2-phenyl-oxazole-4-yl)methoxy)-benzyl]-9H-carbazole-4-yloxy}caprylic acid] | 882
6 | COc1cc(Cn2c3ccccc3c3c(OCC(=O)O)cccc32)ccc1OCc1nc(-c2ccccc2)oc1C [Example 1, 2-{9-[3-methoxy-4-((5-methyl-2-phenyl-oxazole-4-yl)methoxy)-benzyl]-9H-carbazole-4-yloxy}acetic acid] | 3150
7 | CCCCCC(Oc1cccc2c1c1ccccc1n2Cc1ccc(OCc2nc(-c3ccccc3)oc2C)c(OC)c1)C(=O)O (racemic) [Example 18, (±)-2-{9-[3-methoxy-4-((5-methyl-2-phenyl-oxazole-4-yl)methoxy)-benzyl]-9H-carbazole-4-yloxy}heptane acid] | 829

Second part, the compound after the results:

Row | IC50 [nM] | Structure (SMILES)
8 | 546 | COc1cc(Cn2c3ccccc3c3c(OC(C(=O)O)c4ccccc4)cccc32)ccc1OCc1nc(-c2ccccc2)oc1C (racemic) [Example 26, (±)-2-{9-[3-methoxy-4-((5-methyl-2-phenyl-oxazole-4-yl)methoxy)-benzyl]-9H-carbazole-4-yloxy}-2-phenylacetic acid]
9 | 471 | COc1cc(Cn2c3ccccc3c3c(OC(C(=O)O)c4ccccc4)cccc32)ccc1OCc1nc(-c2ccccc2)oc1C (single isomer, unassigned) [Example 50, sodium (+)-2-{9-[3-methoxy-4-((5-methyl-2-phenyl-oxazole-4-yl)methoxy)-benzyl]-9H-carbazole-4-yloxy}-2-phenylacetate]
10 | 1380 | COc1cc(Cn2c3ccccc3c3c(OCCCC(=O)O)cccc32)ccc1OCc1nc(-c2ccccc2)oc1C [Example 33]
11 | 308 | COc1cc(Cn2c3ccccc3c3c(O[C@H](C(=O)O)C(C)C)cccc32)ccc1OCc1nc(-c2ccccc2)oc1C [Example 40, sodium (S)-2-{9-[3-methoxy-4-((5-methyl-2-phenyl-oxazole-4-yl)methoxy)-benzyl]-9H-carbazole-4-yloxy}-3-methyl-butyrate]
12 | 462 | COc1cc(Cn2c3ccccc3c3c(O[C@@H](C(=O)O)C(C)C)cccc32)ccc1OCc1nc(-c2ccccc2)oc1C [Example 44, sodium (R)-2-{9-[3-methoxy-4-((5-methyl-2-phenyl-oxazole-4-yl)methoxy)-benzyl]-9H-carbazole-4-yloxy}-3-methyl-butyrate]
13 | 220 | CCC[C@H](Oc1cccc2c1c1ccccc1n2Cc1ccc(OCc2nc(-c3ccccc3)oc2C)c(OC)c1)C(=O)O [Example 41, sodium (S)-2-{9-[3-methoxy-4-((5-methyl-2-phenyl-oxazole-4-yl)methoxy)-benzyl]-9H-carbazole-4-yloxy}valerate]
14 | 2490 | COc1cc(Cn2c3ccccc3c3c(Oc4cccc(C(=O)O)c4)cccc32)ccc1OCc1nc(-c2ccccc2)oc1C [Example 48, sodium 3-{9-[3-methoxy-4-((5-methyl-2-phenyloxazole-4-yl)methoxy)-benzyl]-9H-carbazole-4-yloxy}benzoate]
15 | 1050 | COc1cc(Cn2c3ccccc3c3c(Oc4ccc(C(=O)O)cc4)cccc32)ccc1OCc1nc(-c2ccccc2)oc1C [Example 49, sodium 4-{9-[3-methoxy-4-((5-methyl-2-phenyloxazole-4-yl)methoxy)-benzyl]-9H-carbazole-4-yloxy}benzoate]
16 | 30 | COc1cc(Cn2c3ccccc3c3c(Oc4ccccc4C(=O)O)cccc32)ccc1OCc1nc(-c2ccccc2)oc1C [Example 47, sodium 2-{9-[3-methoxy-4-((5-methyl-2-phenyloxazole-4-yl)methoxy)-benzyl]-9H-carbazole-4-yloxy}benzoate]
17 | 2460 | COc1cc(Cn2c3ccccc3c3c(OCC(=O)O)cccc32)ccc1OCc1nc(-c2ccccc2)oc1C [Example 29]
18 | 5060 | COc1cc(Cn2c3ccccc3c3c(OCCCCCC(=O)O)cccc32)ccc1OCc1nc(-c2ccccc2)oc1C [Example 21, 6-{9-[3-methoxy-4-((5-methyl-2-phenyl-oxazole-4-yl)methoxy)-benzyl]-9H-carbazole-4-yloxy}caproic acid]
19 | 509 | COc1cc(Cn2c3ccccc3c3c(OCC(C)(C)C(=O)O)cccc32)ccc1OCc1nc(-c2ccncc2)oc1C [Example 35]

Same assay, conditions: at 10 μM test compound; CV-1 cells expressing human PPARγ and RXRα; pioglitazone as stimulant; read-out: Human PPARγ antagonist activities, Inhibition % at 10 μM

Row | inhibition at 10 µM [%] | Structure (SMILES)
20 | 47.4 | COc1cc(Cn2c3ccccc3c3c(OCC(=O)O)cccc32)ccc1OCc1nc(-c2ccco2)oc1C [Example 2, 2-{9-[4-((2-(furan-2-yl)-5-methyl-oxazole-4-yl)methoxy)-3-methoxy-benzyl]-9H-carbazole-4-yloxy}acetic acid]
